In PubChem BioAssay AID256 (DTP/NCI, 2004):
Values joined by “and” are separate entries in the source; they are usually repeats but may differ in a detail not shown here. Equal entries are not always repeated. Inconclusive results and toxic doses are left out. How the source made its calls: active means survival T/C of 150% or more; inactive means T/C below 125% in these data.

Tested on: CD2F1 mice, L1210 leukemia ip, survival T/C
Assay: NCI In Vivo Anticancer Drug Screen. Data for tumor model L1210 Leukemia (intraperitoneal) in CD2F1 (CDF1) mice
Details: endpoint: mean survival time, higher = longer survival
How it was run: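 In this screen, transplantable tumors were grown in mice given either the compound or its vehicle. Results were expressed as the treated measurement relative to the control measurement.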

[1] = dose: 100.0 mg/kg/injection, schedule: Q01DX001 (ip), vehicle: Klucel (hydroxypropylcellulose) (HPC)
[2] = dose: 100.0 mg/kg/injection, schedule: Q01DX009 (ip), vehicle: saline with Tween-80
[3] = dose: 100.0 mg/kg/injection, schedule: Q04DX003 (ip), vehicle: saline with Tween-80
[4] = dose: 200.0 mg/kg/injection, schedule: Q01DX009 (ip), vehicle: saline with Tween-80
[5] = dose: 200.0 mg/kg/injection, schedule: Q04DX003 (ip), vehicle: saline with Tween-80
[6] = dose: 400.0 mg/kg/injection, schedule: Q01DX009 (ip), vehicle: saline with Tween-80
[7] = dose: 400.0 mg/kg/injection, schedule: Q04DX003 (ip), vehicle: saline with Tween-80
[8] = dose: 50.0 mg/kg/injection, schedule: Q01DX009 (ip), vehicle: saline with Tween-80
[9] = dose: 50.0 mg/kg/injection, schedule: Q04DX002 (ip), vehicle: saline with Tween-80
[10] = dose: 100.0 mg/kg/injection, schedule: Q04DX002 (ip), vehicle: saline with Tween-80
[11] = dose: 200.0 mg/kg/injection, schedule: Q04DX002 (ip), vehicle: saline with Tween-80

Measured: T/C

Cc1ccc(NNC(N)=O)cc1
inactive: dose: 25.0 mg/kg/injection, schedule: Q01DX001 (ip), vehicle: Klucel (hydroxypropylcellulose) (HPC) 104 % of control | dose: 50.0 mg/kg/injection, schedule: Q01DX001 (ip), vehicle: Klucel (hydroxypropylcellulose) (HPC) 93 % of control | [1] 89 % of control

Cc1ccc(N2C(=O)C=CC2=O)cc1
inactive: dose: 5.0 mg/kg/injection, schedule: Q01DX009 (ip), vehicle: saline sonified 94 % of control | dose: 5.0 mg/kg/injection, schedule: Q04DX003 (ip), vehicle: saline sonified 96 % of control | dose: 10.0 mg/kg/injection, schedule: Q04DX003 (ip), vehicle: saline sonified 98 % of control | dose: 20.0 mg/kg/injection, schedule: Q01DX009 (ip), vehicle: saline sonified 90 % of control | dose: 20.0 mg/kg/injection, schedule: Q04DX003 (ip), vehicle: saline sonified 96 % of control | dose: 100.0 mg/kg/injection, schedule: Q01DX009 (ip), vehicle: acetone 88 % of control | dose: 200.0 mg/kg/injection, schedule: Q01DX009 (ip), vehicle: acetone 88 % of control | dose: 400.0 mg/kg/injection, schedule: Q01DX009 (ip), vehicle: acetone 93 % of control

COC(=O)c1ccc(C(=O)OC)cc1
inactive: [2] 95 % of control | [3] 93 % of control | [4] 98 % of control | [5] 104 % of control | [6] 95 % of control | [7] 101 % of control

CN(Cc1ccccc1)c1ccc2nc(N)nc(N)c2c1
inactive: [3] 103 % of control | [5] 110 % of control

CCN(Cc1ccccc1)c1ccc(SC#N)cc1
inactive: dose: 100.0 mg/kg/injection, schedule: Q01DX001 (ip), vehicle: saline 100 % of control | dose: 200.0 mg/kg/injection, schedule: Q01DX001 (ip), vehicle: saline 100 % of control | dose: 400.0 mg/kg/injection, schedule: Q01DX001 (ip), vehicle: saline 93 % of control

CC(=O)OC1CCC2(C)C(CCC3C2CCC2(C)C3CC3OC4(CCC(C)CO4)C(C)C32)C1 (stereo not given)
inactive: [3] 95 % of control and 92 % of control | [5] 89 % of control and 90 % of control and 95 % of control | [7] 87 % of control and 90 % of control

OC(CF)CCl (stereo not given)
inactive: [8] 96 % of control | dose: 100.0 mg/kg/injection, schedule: Q04DX003 (ip), vehicle: saline 100 % of control | dose: 200.0 mg/kg/injection, schedule: Q04DX003 (ip), vehicle: saline 121 % of control

CCOC(=O)CN1CCC2CC1c1c([nH]c3ccccc13)C2c1cc2c(cc1OC)N(C)C1C(O)(C(=O)OC)C(OC(C)=O)C3(CC)C=CCN4CCC21C43 (stereo not given)
inactive: dose: 0.06 mg/kg/injection, schedule: Q01DX009 (ip), vehicle: other 87 % of control | dose: 0.13 mg/kg/injection, schedule: Q01DX009 (ip), vehicle: other 97 % of control | dose: 0.25 mg/kg/injection, schedule: Q01DX009 (ip), vehicle: other 92 % of control | dose: 0.5 mg/kg/injection, schedule: Q01DX009 (ip), vehicle: other 92 % of control | dose: 1.0 mg/kg/injection, schedule: Q01DX009 (ip), vehicle: other 97 % of control | dose: 2.0 mg/kg/injection, schedule: Q01DX009 (ip), vehicle: other 90 % of control

C=CN
inactive: dose: 25.0 mg/kg/injection, schedule: Q04DX002 (ip), vehicle: saline with Tween-80 95 % of control | [9] 106 % of control | [10] 98 % of control | [11] 98 % of control

O=c1oc(-c2cccc(Cl)c2)nc2cc(Cl)ccc12
inactive: [1] 98 % of control | dose: 200.0 mg/kg/injection, schedule: Q01DX001 (ip), vehicle: Klucel (hydroxypropylcellulose) (HPC) 95 % of control | dose: 400.0 mg/kg/injection, schedule: Q01DX001 (ip), vehicle: Klucel (hydroxypropylcellulose) (HPC) 94 % of control

CCOC(=O)CC1(O)CCCCC1
inactive: [2] 101 % of control | [3] 100 % of control | [4] 101 % of control | [5] 101 % of control | [6] 100 % of control | [7] 97 % of control

COc1ccc(C2N(C)CCCN2C)c(OC)c1
inactive: dose: 6.25 mg/kg/injection, schedule: Q01DX009 (ip), vehicle: saline sonified 103 % of control | dose: 6.25 mg/kg/injection, schedule: Q04DX003 (ip), vehicle: saline sonified 101 % of control | dose: 12.5 mg/kg/injection, schedule: Q01DX009 (ip), vehicle: saline sonified 103 % of control | dose: 12.5 mg/kg/injection, schedule: Q04DX003 (ip), vehicle: saline sonified 108 % of control | dose: 25.0 mg/kg/injection, schedule: Q01DX009 (ip), vehicle: saline sonified 98 % of control | dose: 25.0 mg/kg/injection, schedule: Q04DX003 (ip), vehicle: saline sonified 100 % of control

COc1cc2c3c(c1O)-c1c(ccc(OC)c1OC)CC3N(C)CC2 (stereo not given)
inactive: dose: 100.0 mg/kg/injection, schedule: Q01DX001 (ip), vehicle: saline with Tween-80 92 % of control | dose: 200.0 mg/kg/injection, schedule: Q01DX001 (ip), vehicle: saline with Tween-80 105 % of control | dose: 400.0 mg/kg/injection, schedule: Q01DX001 (ip), vehicle: saline with Tween-80 97 % of control

CC(C)(C)CC(C)(C)SSc1n[nH]c(=S)s1
inactive: dose: 2.5 mg/kg/injection, schedule: Q04DX003 (ip), vehicle: Klucel (hydroxypropylcellulose) (HPC) 102 % of control | dose: 5.0 mg/kg/injection, schedule: Q04DX003 (ip), vehicle: Klucel (hydroxypropylcellulose) (HPC) 101 % of control | dose: 10.0 mg/kg/injection, schedule: Q04DX003 (ip), vehicle: Klucel (hydroxypropylcellulose) (HPC) 98 % of control and 101 % of control

Nc1cc2c(c[n+](Cc3ccccc3)c3ccccc23)c2ccccc12
inactive: dose: 0.39 mg/kg/injection, schedule: Q04DX003 (ip), vehicle: other 104 % of control | dose: 0.78 mg/kg/injection, schedule: Q04DX003 (ip), vehicle: other 98 % of control | dose: 1.56 mg/kg/injection, schedule: Q04DX003 (ip), vehicle: other 104 % of control | dose: 6.25 mg/kg/injection, schedule: Q04DX003 (ip), vehicle: other 91 % of control

CC1(C)OCC2OC3(C(=O)O)OC(C)(C)OC3C2O1 (stereo not given)
inactive: dose: 50.0 mg/kg/injection, schedule: Q01DX005 (ip), vehicle: saline with Tween-80 88 % of control | [8] 98 % of control | [9] 108 % of control | dose: 100.0 mg/kg/injection, schedule: Q01DX005 (ip), vehicle: saline with Tween-80 88 % of control | [2] 95 % of control | [10] 97 % of control | dose: 200.0 mg/kg/injection, schedule: Q01DX005 (ip), vehicle: saline with Tween-80 92 % of control | [4] 92 % of control | [11] 93 % of control | dose: 400.0 mg/kg/injection, schedule: Q01DX005 (ip), vehicle: saline with Tween-80 88 % of control | [6] 88 % of control | dose: 400.0 mg/kg/injection, schedule: Q04DX002 (ip), vehicle: saline with Tween-80 86 % of control
